Measured values published in paper PMC12669040, “Tumour-specific STING agonist synthesis via a two-component prodrug system” (Nature Chemistry, 2025).
Several values for one entry are separate records, joined by “and”; a condition that tells them apart may be missing. Identical values can stand only once.

Experiments:
[1] = Colorimetric alkylation rate constant assay with TNB^2− as non-specific thiol; format: physicochemical; parameters: second-order: unit not given here; conditions: for remaining [B]: in µM
[2] = Colorimetric alkylation rate constant assay with thiol N1; format: physicochemical; conditions: for remaining [A]: N1 from calibration curve (N1 in uM); for remaining [A] / remaining [B]: in µM
[3] = Time 2891 sec, [B]0 = 250, Replicates 1-3
[4] = Time 3071 sec, [B]0 = 250, Replicates 1-3
[5] = Time 3252 sec, [B]0 = 250, Replicates 1-3
[6] = Time 3433 sec, [B]0 = 250, Replicates 1-3
[7] = Time 3613 sec, [B]0 = 250, Replicates 1-3

remaining [B] ([1]; Replicate 1, 723 sec, [B]0 = 250): 243.335 | remaining [B] ([1]; Replicate 1, 903 sec, [B]0 = 250): 243.032 | remaining [B] ([1]; Replicate 1, 1084 sec, [B]0 = 250): 242.818 | remaining [B] ([1]; Replicate 1, 1265 sec, [B]0 = 250): 242.415 | remaining [B] ([1]; Replicate 1, 1445 sec, [B]0 = 250): 242.176 | remaining [B] ([1]; Replicate 1, 1626 sec, [B]0 = 250): 241.949 | remaining [B] ([1]; Replicate 1, 1806 sec, [B]0 = 250): 241.659 | remaining [B] ([1]; Replicate 1, 1988 sec, [B]0 = 250): 241.394 | remaining [B] ([1]; Replicate 1, 2168 sec, [B]0 = 250): 241.004 | remaining [B] ([1]; Replicate 1, 2349 sec, [B]0 = 250): 240.752 | remaining [B] ([1]; Replicate 1, 2530 sec, [B]0 = 250): 240.437 | remaining [B] ([1]; Replicate 1, 2710 sec, [B]0 = 250): 240.323 | remaining [B] ([1]; Replicate 2, 542 sec, [B]0=250): 243.63 | remaining [B] ([1]; Replicate 2, 723 sec, [B]0=250): 243.24 | remaining [B] ([1]; Replicate 2, 903 sec, [B]0=250): 242.962 | remaining [B] ([1]; Replicate 2, 1084 sec, [B]0=250): 242.698 | remaining [B] ([1]; Replicate 2, 1265 sec, [B]0=250): 242.446 | remaining [B] ([1]; Replicate 2, 1445 sec, [B]0=250): 242.169 | remaining [B] ([1]; Replicate 2, 1626 sec, [B]0=250): 241.929 | remaining [B] ([1]; Replicate 2, 1806 sec, [B]0=250): 241.639 | remaining [B] ([1]; Replicate 2, 1988 sec, [B]0=250): 241.4 | remaining [B] ([1]; Replicate 2, 2168 sec, [B]0=250): 241.098 | remaining [B] ([1]; Replicate 2, 2349 sec, [B]0=250): 240.858 | remaining [B] ([1]; Replicate 2, 2530 sec, [B]0=250): 240.593 | remaining [B] ([1]; Replicate 2, 2710 sec, [B]0=250): 240.316 | remaining [B] ([1]; Replicate 3, 723 sec, [B]0=250): 242.314 | remaining [B] ([1]; Replicate 3, 903 sec, [B]0=250): 241.999 | remaining [B] ([1]; Replicate 3, 1084 sec, [B]0=250): 241.659 | remaining [B] ([1]; Replicate 3, 1265 sec, [B]0=250): 241.344 | remaining [B] ([1]; Replicate 3, 1445 sec, [B]0=250): 241.041 | remaining [B] ([1]; Replicate 3, 1626 sec, [B]0=250): 240.789 | remaining [B] ([1]; Replicate 3, 1806 sec, [B]0=250): 240.5 | remaining [B] ([1]; Replicate 3, 1988 sec, [B]0=250): 240.273 | remaining [B] ([1]; Replicate 3, 2168 sec, [B]0=250): 240.008 | remaining [B] ([1]; Replicate 3, 2349 sec, [B]0=250): 239.706 | remaining [B] ([1]; Replicate 3, 2530 sec, [B]0=250): 239.492 | remaining [B] ([1]; Replicate 3, 2710 sec, [B]0=250): 239.164 | remaining [B] [1, 3]: 238.912 and 239.97 and 240.014 | remaining [B] [1, 4]: 238.673 and 239.655 and 239.774 | remaining [B] [1, 5]: 238.37 and 239.391 and 239.522 | remaining [B] [1, 6]: 238.118 and 239.164 and 239.207 | remaining [B] [1, 7]: 237.79 | remaining [A] ([2]; Replicate 1, time 576 sec): 17.5091 | remaining [B] ([2]; Replicate 1, time 576 sec, [B]0 = 250): 163.389 | remaining [A] ([2]; Replicate 1, time 606 sec): 16.6256 | remaining [B] ([2]; Replicate 1, time 606 sec, [B]0 = 250): 162.506 | remaining [A] ([2]; Replicate 2, time 576 sec): 15.4999 | remaining [B] ([2]; Replicate 2, time 576 sec, [B]0=250): 162.358 | remaining [A] ([2]; Replicate 2, time 606 sec): 14.5929 | remaining [B] ([2]; Replicate 2, time 606 sec, [B]0=250): 161.451 | remaining [A] ([2]; Replicate 3, time 576 sec): 17.4849 | remaining [B] ([2]; Replicate 3, time 576 sec, [B]0=250): 162.938 | remaining [A] ([2]; Replicate 3, time 606 sec): 16.538 | remaining [B] ([2]; Replicate 3, time 606 sec, [B]0=250): 161.991 | remaining [B] ([2]; time 0 sec, [B]0 = 250, replicates 1-3): 219.942 and 218.28 and 218.112 | remaining [B] ([2]; time 30 sec, [B]0 = 250, replicates 1-3): 211.555 and 211.839 and 210.232 | remaining [B] ([2]; time 60 sec, [B]0 = 250, replicates 1-3): 204.386 and 206.139 and 202.834 | remaining [B] ([2]; time 91 sec, [B]0 = 250, replicates 1-3): 199.029 and 200.952 and 197.251 | remaining [B] ([2]; time 121 sec, [B]0 = 250, replicates 1-3): 194.402 and 196.363 and 192.97 | remaining [B] ([2]; time 151 sec, [B]0 = 250, replicates 1-3): 190.452 and 192.373 and 188.804 | remaining [B] ([2]; time 182 sec, [B]0 = 250, replicates 1-3): 186.908 and 188.84 and 185.431 | remaining [B] ([2]; time 212 sec, [B]0 = 250, replicates 1-3): 183.932 and 185.762 and 182.511 | remaining [B] ([2]; time 242 sec, [B]0 = 250, replicates 1-3): 181.254 and 182.541 and 179.734 | remaining [B] ([2]; time 273 sec, [B]0 = 250, replicates 1-3): 178.711 and 180.147 and 177.239 | remaining [B] ([2]; time 303 sec, [B]0 = 250, replicates 1-3): 176.384 and 177.582 and 175.227 | remaining [B] ([2]; time 333 sec, [B]0 = 250, replicates 1-3): 174.382 and 175.53 and 173.129 | remaining [B] ([2]; time 364 sec, [B]0 = 250, replicates 1-3): 172.461 and 173.364 and 171.287 | remaining [B] ([2]; time 394 sec, [B]0 = 250, replicates 1-3): 170.756 and 171.54 and 169.7 | remaining [B] ([2]; time 424 sec, [B]0 = 250, replicates 1-3): 169.187 and 169.802 and 168.141 | remaining [B] ([2]; time 454 sec, [B]0 = 250, replicates 1-3): 167.699 and 168.519 and 166.865 | remaining [B] ([2]; time 485 sec, [B]0 = 250, replicates 1-3): 166.401 and 167.208 and 165.59 | remaining [B] ([2]; time 515 sec, [B]0 = 250, replicates 1-3): 165.237 and 165.84 and 164.371 | remaining [B] ([2]; time 545 sec, [B]0 = 250, replicates 1-3): 164.02 and 164.7 and 163.322
SMILES: COc1cc2sc(C(=O)CCC(=O)O)cc2cc1NC(=O)CCl [Compound E2]
second-order [1, 3]: 0.0004296 and 0.0004811 and 0.0004316 | second-order [1, 4]: 0.0004407 and 0.0004923 and 0.0004463 | second-order [1, 5]: 0.0004524 and 0.0005067 and 0.0004586 | second-order [1, 6]: 0.0004672 and 0.0005187 and 0.0004692 | second-order [1, 7]: 0.0004772 and 0.0005343 and 0.0004876 | second-order ([1]; Time 3794 sec, [B]0 = 250, Replicates 1-3): 0.0004927 and 0.000547 and 0.0004971 | second-order ([1]; Time 3974 sec, [B]0 = 250, Replicates 1-3): 0.0005034 and 0.0005579 and 0.0005103 | second-order ([1]; Time 4155 sec, [B]0 = 250, Replicates 1-3): 0.0005154 and 0.0005714 and 0.0005211 | second-order ([1]; Time 4336 sec, [B]0 = 250, Replicates 1-3): 0.0005298 and 0.0005836 and 0.0005397 | second-order ([1]; Time 4516 sec, [B]0 = 250, Replicates 1-3): 0.0005443 and 0.0005965 and 0.0005531 | second-order ([1]; Time 4697 sec, [B]0 = 250, Replicates 1-3): 0.0005528 and 0.0006095 and 0.0005659 | second-order ([1]; Time 4878 sec, [B]0 = 250, Replicates 1-3): 0.0005674 and 0.0006188 and 0.0005756 | second-order ([1]; Time 5058 sec, [B]0 = 250, Replicates 1-3): 0.0005809 and 0.0006349 and 0.000586 | second-order ([1]; Time 5239 sec, [B]0 = 250, Replicates 1-3): 0.0005944 and 0.0006468 and 0.0006002 | second-order ([1]; Time 5419 sec, [B]0 = 250, Replicates 1-3): 0.0006061 and 0.0006606 and 0.0006132 | second-order ([1]; Time 5600 sec, [B]0 = 250, Replicates 1-3): 0.0006185 and 0.0006707 and 0.0006275 | second-order ([1]; Time 5781 sec, [B]0 = 250, Replicates 1-3): 0.0006334 and 0.0006852 and 0.0006393 | second-order ([1]; Time 5961 sec, [B]0 = 250, Replicates 1-3): 0.0006459 and 0.0007024 and 0.0006549 | second-order ([2]; Replicate 1, time 576 sec, second-order plot value): 0.009306 | second-order ([2]; Replicate 1, time 606 sec, second-order plot value): 0.009623 | second-order ([2]; Replicate 2, time 576 sec, second-order plot value): 0.009966 | second-order ([2]; Replicate 2, time 606 sec, second-order plot value): 0.01034 | second-order ([2]; Replicate 3, time 576 sec, second-order plot value): 0.009352 | second-order ([2]; Replicate 3, time 606 sec, second-order plot value): 0.009694 | second-order ([2]; time 0 sec, replicates 1-3): 0.001589 and 0.00145 and 0.001561 | second-order ([2]; time 30 sec, replicates 1-3): 0.002137 and 0.002004 and 0.001994 | second-order ([2]; time 60 sec, replicates 1-3): 0.002738 and 0.002556 and 0.002427 | second-order ([2]; time 91 sec, replicates 1-3): 0.003264 and 0.003029 and 0.002869 | second-order ([2]; time 121 sec, replicates 1-3): 0.003719 and 0.003488 and 0.003307 | second-order ([2]; time 151 sec, replicates 1-3): 0.004215 and 0.003925 and 0.003731 | second-order ([2]; time 182 sec, replicates 1-3): 0.004663 and 0.00436 and 0.004145 | second-order ([2]; time 212 sec, replicates 1-3): 0.005091 and 0.004762 and 0.004542 | second-order ([2]; time 242 sec, replicates 1-3): 0.005539 and 0.005157 and 0.005 | second-order ([2]; time 273 sec, replicates 1-3): 0.005981 and 0.005566 and 0.005372 | second-order ([2]; time 303 sec, replicates 1-3): 0.00637 and 0.005975 and 0.005807 | second-order ([2]; time 333 sec, replicates 1-3): 0.006811 and 0.006357 and 0.006186 | second-order ([2]; time 364 sec, replicates 1-3): 0.007233 and 0.006753 and 0.006621 | second-order ([2]; time 394 sec, replicates 1-3): 0.007627 and 0.007133 and 0.007019 | second-order ([2]; time 424 sec, replicates 1-3): 0.008046 and 0.007509 and 0.00743 | second-order ([2]; time 454 sec, replicates 1-3): 0.008415 and 0.007894 and 0.007756 | second-order ([2]; time 485 sec, replicates 1-3): 0.008811 and 0.008254 and 0.008111 | second-order ([2]; time 515 sec, replicates 1-3): 0.009219 and 0.008598 and 0.00851 | second-order ([2]; time 545 sec, replicates 1-3): 0.009596 and 0.008984 and 0.008865
